Test results published in patent US20240116985A1, “STAPLED PEPTIDES AND METHODS THEREOF” (priority 2020, published 2024).
Where two headings read alike, the source gives them in different places.

Tests used:
[1] = molecular target: T1, beta-catenin/TCF4 engagement (Homo sapiens, UniProt P35222); assay: Nano-BRET target engagement assay (B-cat-Halo & TCF4-Luc in HEK293 cells); assay type: cell-based; settings: read-out: NanoBRET Abs IC50
T1 construct: expressed in transfected cells; host or cells: HEK293
T1 sequence (P35222 1-781): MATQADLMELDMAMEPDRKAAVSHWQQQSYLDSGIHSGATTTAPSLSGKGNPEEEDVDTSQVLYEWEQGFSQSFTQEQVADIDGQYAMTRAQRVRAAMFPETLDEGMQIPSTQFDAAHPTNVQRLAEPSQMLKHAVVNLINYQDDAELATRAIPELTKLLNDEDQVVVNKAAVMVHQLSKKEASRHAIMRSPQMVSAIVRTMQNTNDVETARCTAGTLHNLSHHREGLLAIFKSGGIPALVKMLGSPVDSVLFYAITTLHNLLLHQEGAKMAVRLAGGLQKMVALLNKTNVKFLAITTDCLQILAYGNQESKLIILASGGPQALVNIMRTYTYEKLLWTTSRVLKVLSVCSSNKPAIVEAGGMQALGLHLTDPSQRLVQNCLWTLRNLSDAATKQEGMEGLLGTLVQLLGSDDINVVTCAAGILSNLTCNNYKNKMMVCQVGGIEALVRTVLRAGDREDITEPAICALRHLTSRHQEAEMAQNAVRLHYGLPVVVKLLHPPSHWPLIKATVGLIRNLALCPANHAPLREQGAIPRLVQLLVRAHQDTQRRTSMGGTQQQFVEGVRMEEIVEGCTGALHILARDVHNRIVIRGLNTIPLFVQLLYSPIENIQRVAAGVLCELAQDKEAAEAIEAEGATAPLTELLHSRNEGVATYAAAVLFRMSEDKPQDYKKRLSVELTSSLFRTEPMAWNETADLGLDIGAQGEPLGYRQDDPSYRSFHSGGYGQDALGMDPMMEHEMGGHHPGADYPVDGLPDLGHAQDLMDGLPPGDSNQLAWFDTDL

[2] = molecular target: T2, full-length beta-Catenin (Uniprot ID P35222) (Homo sapiens, UniProt P35222); assay: Fluorescence polarization IC50 (beta-catenin / 5FAM-TCF4 10-53 competition); assay type: binding; settings: fluorescence polarization; read-out: beta-Catenin FP IC50
T2 construct: 10 nM full-length beta-Catenin (Uniprot ID P35222)
T2 sequence (P35222 1-781): T1 sequence (P35222 1-781)

Row | Compound | IC50 ([1]; absolute IC50) [nM] | IC50 [2] [nM] | IC50 [1] [nM]
1 | CC(=O)N1CCC[C@]12CC=CCCCC1(CCCC=CCCCCCC[C@@](C)(C(=O)N[C@@H](Cc3ccsc3)C(=O)N[C@@H](Cc3csc4ccccc34)C(=O)N[C@@H](CCC(N)=O)C(N)=O)NC(=O)[C@H](CC(N)=O)NC(=O)[C@H](Cc3ccccc3)NC(=O)[C@H](C)NC(=O)[C@H](C)NC(=O)[C@H](CN(CCC(F)(F)F)CC(=O)O)NC(=O)[C@H](CC(=O)O)NC1=O)NC(=O)[C@H](CC(C)(C)C)NC(=O)[C@H](CC(=O)O)NC2=O (stereo partly drawn) [I-1625, Ac-PL3-Asp-Npg-B5-Asp-[Tfp]GA-Ala-Ala-Phe-Asn-S8-3Thi-BztA-Gln-NH2] | 29300 | 52.5 | –
2 | CCCC[C@@H]1NC(=O)[C@H](CC(=O)O)NC(=O)[C@]2(CC=CCCCC3(CCCC=CCCCCCC[C@@](C)(C(=O)N[C@@H](Cc4ccccc4)C(=O)N[C@@H](Cc4csc5ccccc45)C(=O)N[C@@H](CCC(N)=O)C(N)=O)NC(=O)[C@H](CCC(N)=O)NC(=O)[C@H](Cc4ccccc4)NC(=O)[C@H](C)NC(=O)[C@H](C)NC(=O)[C@H](CCC(=O)O)NC(=O)[C@H](CC(=O)O)NC3=O)NC1=O)CCCN2C(C)=O (stereo partly drawn) [I-1521, Ac-PL3-Asp-nLeu-B5-Asp-Glu-Ala-Ala-Phe-Gln-S8-Phe-BztA-Gln-NH2] | 6000 | 16 | –
3 | CC(=O)N1CCC[C@]12CC=CCCCC1(CCCC=CCCCOC(=O)N3CC[C@@](C(=O)N[C@@H](Cc4ccccc4Cl)C(=O)N[C@@H](Cc4csc5ccccc45)C(=O)N[C@@H](CO)C(N)=O)(C3)NC(=O)[C@H](CC(C)C)NC(=O)[C@H](Cc3ccccc3)NC(=O)[C@H](C)NC(=O)[C@H](C)NC(=O)[C@H]([C@@H](C)O)NC(=O)[C@H](CC(=O)O)NC1=O)NC(=O)[C@H](CC(C)(C)C)NC(=O)[C@H](CC(=O)O)NC2=O (stereo partly drawn) [I-1172, Ac-PL3-Asp-Npg-B5-Asp-Thr-Ala-Ala-Phe-Leu-PyrS2-2C1F-BztA-Ser-NH2] | 19400 | 45 | –

Other lines, results leading:

Row | IC50 ([1]; absolute IC50) [nM] | IC50 [2] [nM] | IC50 [1] [nM] | Compound
4 | 21500 | 59 | – | CCCC[C@@H]1NC(=O)[C@H](Cc2cccc(C(=O)O)c2)NC(=O)[C@H](CC(=O)O)NC(=O)C2(CCCC=CCCCOC(=O)N3CC[C@@](C(=O)N[C@@H](Cc4ccccc4Cl)C(=O)N[C@@H](Cc4csc5ccccc45)C(=O)N[C@@H](CCC(N)=O)C(N)=O)(C3)NC(=O)[C@H](CC(C)C)NC(=O)[C@H](Cc3ccccc3)NC(=O)CNC1=O)CCCC=CC[C@]1(CCCN1C(C)=O)C(=O)N[C@@H](CC(=O)O)C(=O)N[C@@H](CC(C)(C)C)C(=O)N2 (stereo partly drawn) [I-1688, Ac-PL3-Asp-Npg-B5-Asp-3COOHF-nLeu-Gly-Phe-Leu-PyrS2-2C1F-BztA-Gln-NH2]
5 | > 20000 | 7 | – | CC(=O)N1CCC[C@]12CC=CCCCC1(CCCC=CCCCOC(=O)N3CC[C@@](C(=O)N[C@@H](Cc4ccsc4)C(=O)N[C@@H](Cc4csc5ccccc45)C(=O)N[C@@H](Cc4c[nH]cn4)C(N)=O)(C3)NC(=O)[C@H](CC(N)=O)NC(=O)[C@H](Cc3ccccc3)NC(=O)[C@H](C)NC(=O)C(C)(C)NC(=O)[C@H]([C@@H](C)O)NC(=O)[C@H](CC(N)=O)NC1=O)NC(=O)[C@H](CC(C)(C)C)NC(=O)[C@H](CC(=O)O)NC2=O (stereo partly drawn) [I-2414, Ac-PL3-Asp-Npg-B5-Asn-Thr-Aib-Ala-Phe-Asn-PyrS2-3Thi-BztA-His-NH2]
6 | – | 37 | > 20000 | CC(=O)N1CCC[C@]12CC=CCCCC1(CCCC=CCCCOC(=O)N3CCC(C(=O)N[C@@H](Cc4ccsc4)C(=O)N[C@@H](Cc4csc5ccccc45)C(=O)N[C@@H](C)C(N)=O)(CC3)NC(=O)[C@H](CC(C)C)NC(=O)[C@H](Cc3ccccc3)NC(=O)[C@H](C)NC(=O)[C@H](CCC(N)=O)NC(=O)[C@H](Cc3cccc(C(=O)O)c3)NC(=O)[C@H](CC(=O)O)NC1=O)NC(=O)[C@H](CC(C)(C)C)NC(=O)[C@H](CC(=O)O)NC2=O (stereo partly drawn) [I-2592, Ac-PL3-Asp-Npg-B5-Asp-3COOHF-Gln-Ala-Phe-Leu-SPip2-3Thi-BztA-Ala-NH2]
